In the supplement of paper PMC10307832:

Assays:
Assay in all cases: relative viability (nuclei count vs DMSO), 5 days (fraction); higher = more cells survive
[1] = system: SW 900
Method in brief: (§1)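 A single step with final 0.05% Triton X-100, 1% formaldehyde and 1 ug/ml Hoechst fixed the cells and stained nuclei 5 days after treatment. Lung cancer cell lines in 1536-well plates had been treated by pin tool the day after seeding with one drug alone or a fixed anchor-drug dose plus five library-drug doses (not always all listed) in √10 steps, and nuclei were counted on 4× images. Relative viability is the ratio of nuclei in treated wells to nuclei in vehicle wells, taken as the median of duplicate plates.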

[2] = system: EKVX
Method in brief: as §1

[3] = system: COR-L23
Method in brief: as §1

[4] = system: SW 1573
Method in brief: as §1

[5] = system: NCI-H1793
Method in brief: as §1

[6] = system: HCC-44
Method in brief: as §1

[7] = system: NCI-H460
Method in brief: as §1

[8] = system: LK-2
Method in brief: as §1

[9] = system: NCI-H2228
Method in brief: as §1

[10] = system: NCI-H520
Method in brief: as §1

[11] = system: EMC-BAC-2
Method in brief: as §1

[12] = system: LXF-289
Method in brief: as §1

[13] = system: NCI-H1650
Method in brief: as §1

[14] = system: NCI-H1651
Method in brief: as §1

[15] = system: NCI-H1915
Method in brief: as §1

[16] = system: NCI-H2347
Method in brief: as §1

[17] = system: NCI-H661
Method in brief: as §1

[18] = system: A-427
Method in brief: as §1

[19] = system: NCI-H2087
Method in brief: as §1

[20] = system: BEN
Method in brief: as §1

[21] = system: EPLC-272H
Method in brief: as §1

[22] = system: NCI-H358
Method in brief: as §1

`COCC1(CO)C(=O)C2CCN1CC2` (configuration not stated) [PRIMA-1MET] + O=C(c1cc(Cc2n[nH]c(=O)c3ccccc23)ccc1F)N1CCN(C(=O)C2CC2)CC1 [Olaparib] (partner 8 µM) gave a relative viability ([1]; first compound 0.2 µM) of 1.06, a relative viability ([1]; first compound 0.6325 µM) of 0.888 and a relative viability ([1]; first compound 6.325 µM) of 0.882. The relative viability ([1]; first compound 20 µM) was 0.0786, the relative viability ([2]; first compound 0.2 µM) was 1.01 and the relative viability ([2]; first compound 2 µM) was 0.694. For the same compound, the relative viability ([2]; first compound 6.325 µM) was 0.825, the relative viability ([2]; first compound 20 µM) was 0.403 and the relative viability ([3]; first compound 0.2 µM) was 0.38. For the same compound, the relative viability ([3]; first compound 0.6325 µM) was 0.315, the relative viability ([3]; first compound 2 µM) was 0.379 and the relative viability ([3]; first compound 6.325 µM) was 0.315. For the same compound, the relative viability ([3]; first compound 20 µM) was 0.106, the relative viability ([4]; first compound 0.2 µM) was 0.672 and the relative viability ([4]; first compound 2 µM) was 0.388. For the same compound, the relative viability ([4]; first compound 6.325 µM) was 0.0574, the relative viability ([4]; first compound 20 µM) was 0.0284 and the relative viability ([5]; first compound 0.2 µM) was 1.04. It also gave a relative viability ([5]; first compound 0.6325 µM) of 0.887, a relative viability ([5]; first compound 6.325 µM) of 0.843 and a relative viability ([5]; first compound 20 µM) of 0.539. The relative viability ([6]; first compound 0.2 µM) was 1.06, the relative viability ([6]; first compound 0.6325 µM) was 0.969 and the relative viability ([6]; first compound 2 µM) was 1.12. For the same compound, the relative viability ([6]; first compound 6.325 µM) was 0.969, the relative viability ([6]; first compound 20 µM) was 0.945 and the relative viability ([7]; first compound 0.2 µM) was 0.532. It also gave a relative viability ([7]; first compound 0.6325 µM) of 0.337, a relative viability ([7]; first compound 2 µM) of 0.384 and a relative viability ([7]; first compound 6.325 µM) of 0.451. For the same compound, the relative viability ([7]; first compound 20 µM) was 0.162, the relative viability ([8]; first compound 0.2 µM) was 0.823 and the relative viability ([8]; first compound 0.6325 µM) was 0.632. It also gave a relative viability ([8]; first compound 2 µM) of 0.513, a relative viability ([8]; first compound 6.325 µM) of 0.423 and a relative viability ([8]; first compound 20 µM) of 0.0842. The relative viability ([9]; first compound 0.2 µM) was 0.768, the relative viability ([9]; first compound 0.6325 µM) was 0.522 and the relative viability ([9]; first compound 2 µM) was 0.762. The relative viability ([9]; first compound 6.325 µM) was 0.577, the relative viability ([9]; first compound 20 µM) was 0.0565 and the relative viability ([10]; first compound 0.2 µM) was 0.371. The relative viability ([10]; first compound 2 µM) was 0.38, the relative viability ([10]; first compound 6.325 µM) was 0.318 and the relative viability ([10]; first compound 20 µM) was 0.144. It also gave a relative viability ([11]; first compound 0.2 µM) of 0.624, a relative viability ([11]; first compound 0.6325 µM) of 0.486 and a relative viability ([11]; first compound 6.325 µM) of 0.499. The relative viability ([11]; first compound 20 µM) was 0.43, the relative viability ([12]; first compound 0.2 µM) was 1.14 and the relative viability ([12]; first compound 0.6325 µM) was 1.03. The relative viability ([12]; first compound 2 µM) was 1.06, the relative viability ([12]; first compound 6.325 µM) was 1.06 and the relative viability ([12]; first compound 20 µM) was 0.999. The relative viability ([13]; first compound 0.2 µM) was 0.75, the relative viability ([13]; first compound 0.6325 µM) was 0.744 and the relative viability ([13]; first compound 2 µM) was 0.75. It also gave a relative viability ([13]; first compound 6.325 µM) of 0.709, a relative viability ([13]; first compound 20 µM) of 0.585 and a relative viability ([14]; first compound 0.2 µM) of 0.226. For the same compound, the relative viability ([14]; first compound 0.6325 µM) was 0.158, the relative viability ([14]; first compound 2 µM) was 0.179 and the relative viability ([14]; first compound 6.325 µM) was 0.202. The relative viability ([14]; first compound 20 µM) was 0.184, the relative viability ([15]; first compound 0.2 µM) was 0.249 and the relative viability ([15]; first compound 0.6325 µM) was 0.235. For the same compound, the relative viability ([15]; first compound 2 µM) was 0.239, the relative viability ([15]; first compound 6.325 µM) was 0.256 and the relative viability ([15]; first compound 20 µM) was 0.254. It also gave a relative viability ([16]; first compound 0.2 µM) of 0.641, a relative viability ([16]; first compound 0.6325 µM) of 0.517 and a relative viability ([16]; first compound 2 µM) of 0.559. The relative viability ([16]; first compound 6.325 µM) was 0.624, the relative viability ([16]; first compound 20 µM) was 0.433 and the relative viability ([17]; first compound 0.2 µM) was 0.827. For the same compound, the relative viability ([17]; first compound 0.6325 µM) was 0.721, the relative viability ([17]; first compound 2 µM) was 0.76 and the relative viability ([17]; first compound 6.325 µM) was 0.753. For the same compound, the relative viability ([17]; first compound 20 µM) was 0.751, the relative viability ([18]; first compound 0.2 µM) was 0.918 and the relative viability ([18]; first compound 0.6325 µM) was 0.607. The relative viability ([18]; first compound 2 µM) was 0.746, the relative viability ([18]; first compound 6.325 µM) was 0.765 and the relative viability ([18]; first compound 20 µM) was 0.687. For the same compound, the relative viability ([19]; first compound 0.6325 µM) was 0.589, the relative viability ([19]; first compound 2 µM) was 0.749 and the relative viability ([19]; first compound 6.325 µM) was 0.649. It also gave a relative viability ([19]; first compound 20 µM) of 0.241, a relative viability ([20]; first compound 0.2 µM) of 1.19 and a relative viability ([20]; first compound 0.6325 µM) of 1.11. The relative viability ([20]; first compound 6.325 µM) was 1.12, the relative viability ([20]; first compound 20 µM) was 1.07 and the relative viability ([21]; first compound 0.2 µM) was 0.655. It also gave a relative viability ([21]; first compound 0.6325 µM) of 0.89, a relative viability ([21]; first compound 2 µM) of 0.911 and a relative viability ([21]; first compound 6.325 µM) of 0.694. The relative viability ([21]; first compound 20 µM) was 0.0737, the relative viability ([22]; first compound 0.2 µM) was 0.623 and the relative viability ([22]; first compound 0.6325 µM) was 0.555. It also gave a relative viability ([22]; first compound 2 µM) of 0.601, a relative viability ([22]; first compound 6.325 µM) of 0.635 and a relative viability ([22]; first compound 20 µM) of 0.553.
